According to article PMC12782889, “A GmNRF5a–GmCERK1–GmCAK1 module mediates chitin/chitosan‐triggered immune response in soybean” (Journal of Integrative Plant Biology, 2025):

Legend:
AtCERK1^ECD = biological target: T1, AtCERK1^ECD (Arabidopsis thaliana, UniProt A8R7E6); assay: Microscale thermophoresis (MST) binding to AtCERK1^ECD (positive control); conditions: ligand dp6, protein purified from Pichia pastoris, read-out: dissociation constant (K D) with AtCERK1^ECD
T1 construct: ectodomain of AtCERK1 (aa25–224); made in house; host or cells: Pichia pastoris X-33
T1 sequence (A8R7E6 25-224): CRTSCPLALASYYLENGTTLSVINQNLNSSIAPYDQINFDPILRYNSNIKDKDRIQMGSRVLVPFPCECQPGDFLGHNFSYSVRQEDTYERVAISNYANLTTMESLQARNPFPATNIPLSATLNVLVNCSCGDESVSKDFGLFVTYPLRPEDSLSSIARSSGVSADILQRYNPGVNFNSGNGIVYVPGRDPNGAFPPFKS

UGT76G1 = biological target: T2, UGT76G1 (Stevia rebaudiana, UniProt Q6VAB4); assay: MST binding to UGT76G1 (negative control protein)
T2 construct: made in house
T2 sequence (Q6VAB4 1-458): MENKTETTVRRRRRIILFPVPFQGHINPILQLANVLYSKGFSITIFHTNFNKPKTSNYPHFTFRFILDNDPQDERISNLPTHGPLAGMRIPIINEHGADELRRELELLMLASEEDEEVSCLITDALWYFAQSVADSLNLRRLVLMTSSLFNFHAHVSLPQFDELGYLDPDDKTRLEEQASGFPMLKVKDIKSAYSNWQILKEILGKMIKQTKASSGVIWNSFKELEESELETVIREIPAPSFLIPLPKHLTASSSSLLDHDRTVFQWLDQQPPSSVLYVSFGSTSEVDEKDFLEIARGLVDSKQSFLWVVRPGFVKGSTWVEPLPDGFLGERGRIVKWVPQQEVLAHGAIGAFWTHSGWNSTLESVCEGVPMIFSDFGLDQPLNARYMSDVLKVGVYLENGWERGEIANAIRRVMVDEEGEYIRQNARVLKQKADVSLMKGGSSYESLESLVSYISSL

[1] = test system: phosphorylated MPK6/3/4 (P42/44) in soybean leaf discs; assay: MAPK phosphorylation immunoblot in soybean leaf discs; type: cell-based, soybean (Glycine max); conditions: soybean leaf discs at 5 min; anti-phospho P42/44 immunoblot; vs control dH2O
Protocol: To measure the oxidation burst, leaf discs (Ø 0.5 cm) collected from 2-week-old soybean (cultivar Williams) were floated overnight in 200 μL sterile H2O in a 96-well plate. The H2O was replaced with 200 μL reaction buffer containing luminol/peroxidase ([…] luminol, 10 mg/mL peroxidase) and chitooligosaccharides treatments (50 mg/L). flg22 was used as a positive control. The luminescence was measured using a GLOMAX96 microplate luminometer (Promega, Madison, WI, USA). The experiments for MAPK activation were carried out as described previously ([[…] et al., 2014]). The MAPK activation was determined by immunoblots with anti-phospho-p44/42 MAPK antibody (#4370; Cell Signaling, Boston, MA, USA).

GmCERK1 homodimer = assay: Co-immunoprecipitation of GmCERK1-GFP with GmCERK1-HA in N. benthamiana; type: cell-based, soybean (Glycine max); conditions: Co-IP; N. benthamiana leaves treated 50 mg/L for 5 min
Protocol: Nicotiana benthamiana leaves were harvested 48 h post inoculation (hpi) after agroinfiltration. Samples were ground in liquid nitrogen and incubated for 30 min in a lysis buffer (50 mM Tris-HCl pH 8.0, 150 mM NaCl, 1.0% (v/v) NP-40, 0.1% SDS (w/v) and 0.1% protease inhibitor cocktail ([…]; Sigma, St. Louis, MI, USA)). Supernatant was collected by centrifugation at 21,000 g for 15 min and then incubated with GFP-trap beads (item No.: gta-20; Chromotek, Hauppauge, NY, USA) at 4°C for 2 h. The GFP-trap beads were pelleted by centrifugation at 500 g for 2 min and washed with lysis buffer at least four times. Proteins were eluted by boiling the beads in a protein loading buffer for 10 min and detected by immunoblot analysis with anti-GFP (Cat No. M20004; Abmart, Shanghai, China) or anti-HA (Cat No. M20013; Abmart, Shanghai, China).

Phytophthora sojae P6497 = assay: P. sojae infection of pretreated soybean hairy roots (GFP control); type: in vivo, Phytophthora sojae on soybean (Glycine max); conditions: control hairy roots expressing GFP; 50 mg/L soak 12 h; 48 hpi; vs dH2O; P < 0.0001
Source text: Soybean (cultivar Williams) seeds were surface sterilized and germinated as previously described ([Kereszt et al., 2007]). Soybean cotyledons were removed from […] seedlings grown in vermiculite. Cotyledons were harvested at Day 7 by gently twisting them off the hypocotyl. Only unblemished cotyledons were employed for all protocols. Individual cotyledons were surface sterilized by wiping with an alcohol swab soaked in 70% ethanol. The alcohol swab was wrung out slightly before use, so that it was wet but not dripping. […] Hairy roots were monitored for green fluorescence production over a period of 4 weeks. For silencing in hairy roots, the transcript levels of the targeted gene and its closest paralogs were measured in fluorescent green hairy roots using qRT‐PCR to assess silencing efficiency.
For soybean etiolated hypocotyls inoculation assays, etiolated hypocotyls of soybean (cultivar Williams) were inoculated with P. sojae zoospore suspensions (100 zoospores). […] For soybean hairy‐root inoculation assays, transgenic hairy roots were soaked in CTOS/CSOS (50 mg/L) or mock (dH2O) for 12 h and then were infected with red fluorescent protein (RFP)‐labeled P. sojae strain P6497, and fluorescence was visualized in the infected area of soybean hairy root and the biomass of P. sojae was determined by qRT‐PCR at 48 hpi.

Row | SMILES | Kd (AtCERK1^ECD) | binding to UGT76G1 (UGT76G1) | MAPK phosphorylation [1] | GmCERK1-GFP / GmCERK1-HA interaction (homodimer) (GmCERK1 homodimer) | soybean defense against P. sojae (pathogen biomass) (Phytophthora sojae P6497)
1 | N[C@H]1[C@H](O[C@H]2[C@H](O)[C@@H](N)[C@H](O[C@H]3[C@H](O)[C@@H](N)[C@H](O[C@H]4[C@H](O)[C@@H](N)[C@H](O[C@H]5[C@H](O)[C@@H](N)[C@H](O[C@H]6[C@H](O)[C@@H](N)C(O)O[C@@H]6CO)O[C@@H]5CO)O[C@@H]4CO)O[C@@H]3CO)O[C@@H]2CO)O[C@H](CO)[C@@H](O)[C@@H]1O (some centres unmarked) [CSOS (dp6), chitosan oligosaccharide] | 2730 ± 430 µM | cannot bind | can induce MAPK activity | strong interaction | 
2 | CC(=O)N[C@H]1[C@H](O[C@H]2[C@H](O)[C@@H](NC(C)=O)[C@H](O[C@H]3[C@H](O)[C@@H](NC(C)=O)C(O)O[C@@H]3CO)O[C@@H]2CO)O[C@H](CO)[C@@H](O[C@@H]2O[C@H](CO)[C@@H](O[C@@H]3O[C@H](CO)[C@@H](O[C@@H]4O[C@H](CO)[C@@H](O)[C@H](O)[C@H]4NC(C)=O)[C@H](O)[C@H]3NC(C)=O)[C@H](O)[C@H]2NC(C)=O)[C@@H]1O (some centres unmarked) [CTOS (dp6), chitin oligosaccharide] | 660 ± 270 µM | cannot bind |  | strong interaction | significantly bolstered
